“Also recorded” adds a separate entry of the source. Starred links: 1 amine or outer side, 2 acyl side, 3 side chain; linkers in the order of their positions; H or OH if unused. Positions of bridges follow the written chain, without caps; N, C: chain ends. Non-standard residues stand in square brackets, D forms with d. Residues, ends and D or L forms follow the SMILES beside them. *: point of attachment. Leu(3R-OH,Nα-propionyl) = CCC(=O)N[C@H](C(=O)*)[C@H](O)C(C)C; X1 = CC(C)[C@@H](O[*:3])[C@H](N[*:1])C(=O)[*:2]; NMeT = CN[C@H](C(=O)O)[C@@H](C)O; dPhLac = O=C(O)[C@H](O)Cc1ccccc1; NMeA = CN[C@@H](C)C(=O)O; NMeDha = C=C(NC)C(=O)O
target: T1, Chymotrypsin (Bos taurus, UniProt P00766); test: Native metabolomics / native MS detection of chymotrypsin-ligand complexes; format: binding; details: control compounds pooled at 10 µg/mL
T1 construct: purchased Sigma-Aldrich
Procedure: For native metabolomics experiments, the same chromatographic parameters were used and in addition, 220 µL/min (setup A) or 150 µL/min (setup B) ammonium acetate buffer was infused post-column through a make-up pump and a PEEKT-splitter and enzyme solution was infused with 2 µL/min flow rate via the integrated syringe pump. ESI settings were set to 40 arb. units sheath gas flow, the auxiliary gas flow was set to 10 arb. units and sweep gas flow was set to 0 arb. units. The auxiliary gas temperature was set to 150 °C. The spray voltage was set to 3 kV and the inlet capillary was heated to 253 °C. S-lens level was set to 30 V applied. MS scan range was set to 2000-4000 m/z (setup A) and 2500–4000 m/z (setup B) with a resolution Rm/z 200 140,000 (setup A) and 120,000 (setup B) with 2 microscans. MS acquisition was performed in all-ion fragmentation (AIF) mode with Rm/z 200 with 20% HCD collision energy and an isolation window of 2000 –4000 m/z (setup A) or 2500–4000 m/z (setup B).
For native LC-MS data, multiple charged spectra were deconvoluted using the Xtract algorithm in Qualbrowser, part of the Xcalibur software (Thermo Scientific) and also using FLASHDeconv (version 2.0Beta) {Jeong, K. et al. FLASHDeconv: Ultrafast, High-Quality Feature Deconvolution for Top- Down Proteomics. Cell Syst 10, 213-218 e216 (2020).}. For Xtract algorithm, both deconvoluted native LC-MS and metabolomics LC-MS/MS.raw files were converted to the centroid.mzML file format using MSconvert of the proteowizard software package. For FLASHDeconv, the raw files were converted into centroid m/zML again using MSconvert software first. Then the converted mzML files were deconvolved to generate deconvolved.mzML format files. Feature finding of both file types was performed using a modified version of MZmine2.37 (corr.17.7). Feature tables from both intact protein mass and metabolomics data were matched by their retention time (RT) and an m/z offset corresponding to the mass of chymotrypsin (25234 Da) with an RT tolerance of 0.2 min and a mass tolerance of 4 Da.
To optimize ESI setting as well as the influence of NH4Acetate concentration and pH, we used molassamide as a test compound. For optimization of ESI settings, we performed flow injections without a column and ramped ESI aux gas temperature, in-source CID energy, S-lense RF voltage. Optimization of pH values over the entire LC gradient and peak intensities were both assessed using three different make-up buffers. Make-up buffer 1 was water, make-up buffer 2 was 10 mM NH4Acetate buffer, and make-up buffer 3 was 10 mM NH4Acetate buffer + 0.2% ammonium hydroxide, v/v. Effects of NH4Acetate concentration was assessed with an online mixed make-up flow (using Experimental Setup B) with the low-pressure gradient pump. As solvent A we used LC-MS grade water and 100 mM NH4Acetate as solvent B. Molassamide was prepared as 100 µM solutions from a 10 mM stock solution in DMSO by preparing a 1:100 dilution into solvent mixture 1 (water + 10% acetonitrile + 0.1% formic acid). Samples were analyzed as described in micro-flow LC-MS/MS data acquisition (setup A); 2 µL of each solution were injected into the mass spectrometer, while chymotrypsin (Sigma), dissolved in water to a final concentration of 2 mg/mL, was injected through the syringe pump at a flow rate of 2 µL/min. pH values were assessed by disconnecting the flow to the source and collecting ~30 µL of solvent every minute, then testing this value on pH paper.
Molassamide was prepared as 100 µM solutions from a 10 mM stock solution in DMSO by preparing a 1:100 dilution into solvent mixture 1 (water + 10% acetonitrile + 0.1% formic acid). From this 100 µM solution, dilutions were prepared at 10, 1, and 0.1 µM into solvent mixture 1. 2 µL of each solution were injected into the mass spectrometer. […]

Q: With `C=C1C(=O)N[C@@H](C)C(=O)N(C)[C@@H](C)C(=O)N[C@@H]([C@H](OC(=O)[C@@H](NC(=O)CC)[C@H](O)C(C)C)C(C)C)C(=O)N(C)[C@@H]([C@@H](C)OC)C(=O)O[C@H](C(C)C)[C@H](NC(C)=O)C(=O)O[C@H](Cc2ccccc2)C(=O)N1C` [FR900359] (Ac-[X1][dPhLac][NMeDha]A[NMeA][X1](Leu(3R-OH,Nα-propionyl))[NMeT](Me); ester 1-C) as the compound, how does the “binding to chymotrypsin under native MS conditions” value (“binding to chymotrypsin” below) read?
A: The value was “did not observe the binding; also recorded: no binding”.

Q: Which “binding to chymotrypsin” value does the source give for `CC[C@H](C)[C@@H](C(=O)O[C@@H](CC(C)C)C(=O)N[C@@H](CC(C)C)C(=O)N[C@@H](C)/C=C/C(=O)N1C(=O)C=C(OC)[C@@H]1C)N(C)C` [gallinamide A] here?
A: The value was “did not observe the binding; also recorded: no binding”.

Q: Which “binding to chymotrypsin” value does the source give for `O=c1c(-c2ccc(O)cc2)coc2cc(O)cc(O)c12` [genistein] here?
A: The value was “did not observe the binding; also recorded: no binding”.

Q: For `Oc1cc(O)cc(O)c1` [phloroglucinol], which “binding to chymotrypsin” value is on record?
A: The value was “did not observe the binding; also recorded: no binding”.

Q: Which “binding to chymotrypsin” value does the source give for `O=C1c2ccc(O)c(O)c2C(=O)c2c(O)ccc(O)c21` [quinalizarin] here?
A: Its value is “did not observe the binding; also recorded: no binding”.

tested on: Chymotrypsin; test: not given; set-up: method as in earlier work; details: Supplementary Table 5, Top 50 chymotrypsin inhibitors among Ahp-cyclodepsipeptides; cited from earlier work

Q: With `CCCC(=O)N[C@@H](CCC(N)=O)C(=O)N[C@@H]1C(=O)N[C@@H](CCCNC(N)=O)C(=O)N[C@H]2CC[C@@H](O)N(C2=O)[C@@H]([C@@H](C)CC)C(=O)N(C)[C@@H](Cc2ccc(OC)c(Br)c2)C(=O)N[C@@H](C(C)C)C(=O)O[C@@H]1C` [Symplocamide A] as the compound, how does the IC50 read?
A: Its IC50 is 380 nM.

Q: Which IC50 does the source give for `C/C=C1\NC(=O)[C@@H](NC(=O)[C@@H](NC(=O)[C@H](C)NC(=O)C/C(C)=C/Cl)[C@@H](C)CC)[C@@H](C)OC(=O)[C@H](C(C)C)NC(=O)[C@H](Cc2ccc(O)cc2)N(C)C(=O)[C@H](Cc2ccccc2)N2C(=O)[C@H](CC[C@H]2O)NC1=O` [Tutuilamide A] here?
A: The IC50 was 1000 nM.

Q: With `C/C=C1\NC(=O)[C@@H](NC(=O)[C@@H](NC(=O)[C@H](C)NC(=O)C/C(C)=C/Cl)C(C)C)[C@@H](C)OC(=O)[C@H](C(C)C)NC(=O)[C@H](Cc2ccc(O)cc2)N(C)C(=O)[C@H](Cc2ccccc2)N2C(=O)[C@H](CC[C@H]2O)NC1=O` [Tutuilamide B] as the compound, how does the IC50 read?
A: Its IC50 is 577 nM.

Q: Which IC50 does the source give for Crocapeptin B here?
A: Its IC50 is 200 nM.

Q: For Cyanopeptolin CP978, which IC50 is on record?
A: The IC50 was 260 nM.

Q: Which IC50 does the source give for Cyanopeptolin CP992 here?
A: The IC50 was 240 nM.

Q: For Cyanopeptolin CP1018, which IC50 is on record?
A: The IC50 was 240 nM.

Q: With Dinghupepeptin B as the compound, how does the IC50 read?
A: Its IC50 is 1100 nM.

Q: With Loggerpeptin A as the compound, how does the IC50 read?
A: The IC50 was 240 nM.

Q: With Micropeptin 88-A as the compound, how does the IC50 read?
A: The IC50 was 400 nM.

Q: For Micropeptin 88-Y, which IC50 is on record?
A: Its IC50 is 1300 nM.

Q: Which IC50 does the source give for Micropeptin KB991 here?
A: The IC50 was 870 nM.

Q: With Micropeptin KB1048 as the compound, how does the IC50 read?
A: The IC50 was 630 nM.

Q: With Micropeptin MM850 as the compound, how does the IC50 read?
A: The IC50 was 1700 nM.

Q: Which IC50 does the source give for Micropeptin T-20 here?
A: The IC50 was 2.5 nM.

Q: Which IC50 does the source give for Tutuilamide C here?
A: The IC50 was 542 nM.

same assay, conditions: cited from earlier work

Q: With Microcystin 996 as the compound, how does the IC50 read?
A: Its IC50 is 640 nM.

Source: PMC9358669, “Native metabolomics identifies the rivulariapeptolide family of protease inhibitors” (Nature Communications, 2022)
